Reference: patent US20260242402A1, “PRODRUGS OF STAT3 INHIBITORS” (Tvardi Operating Company, Inc., priority 2022, published 2026)
≈ marks a conversion by molar mass, not a printed value. Where a name gives a salt, the structure may show the parent alone. Read-outs that look alike come from different tables or passages of the source.

How the values were obtained:
[1] = male, SD, rat, in vivo, po
physchem [2] = conditions: thermodynamic from solid
[3] = male, cynomolgus monkey, in vivo, po
[4] = not given; remark: listed apart in the source
physchem [5] = conditions: buffer, pH 7.4
in vitro = conditions: human, plasma
[6] = Solubility of TTI-101 as described in the text; assay type: physicochemical; conditions: aqueous solutions
[7] = Pharmacokinetics in monkeys (TTI-101 in plasma by LC-MS/MS); conditions: male, cynomolgus monkey, iv, 26 mg/kg
in vivo = conditions: rat
[8] = pH 2, aqueous buffer, Solubility (pH = 2.0)

With `COc1ccc(S(=O)(=O)Nc2cc(-c3c(O)ccc4ccccc34)c(OP(=O)(O)O)c3ccccc23)cc1` [Compound 9, 2-hydroxy-4′-((4-methoxyphenyl)sulfonamido)-[1,2′-binaphthalen]-1′-yl dihydrogen phosphate] the “Aqueous Stability (pH = 2.0)” value (pH 2) was “Stable”, the “Aqueous Stability (pH = 3.5)” value (pH 3.5) was “Stable” and the “Aqueous Stability (pH = 7.4) (in words)” value (pH 7.4) was “Stable”. For the same molecule, the “F % (bioavailability, calculated on dose levels)” value [1] was 58.5%, the T1/2 [1] was 2.0 ± 0.4 h and the Tmax [1] was 1.8 ± 1.7 h. The AUClast ([1]; 22.4 mg/kg) was 37775 ± 14217 ng·h/mL, the solubility (physchem [2]; [8]) was 1530 µg/mL and the solubility (physchem [2]; pH 7.4, aqueous buffer, Solubility (pH = 7.4)) was 6160 µg/mL. The “F % (bioavailability, calculated on dose levels)” value [3] was 81.3%, the T1/2 [3] was 6.7 ± 1.4 h and the Tmax [3] was 1.7 ± 0.6 h. For the same molecule, the AUClast ([3]; 24.3 mg/kg) was 75704 ± 14050 ng·h/mL.
With `COc1ccc(S(=O)(=O)Nc2cc3c(c4ccccc24)OP(=O)(O)Oc2ccc4ccccc4c2-3)cc1` [Compound 9A, N-((6)-6-hydroxy-6-oxidodinaphtho[1,2-d:1′,2′-f][1,3,2]dioxaphosphepin-15-yl)-4-methoxybenzenesulfonamide] the “Solubility (pH = 7.4)” value [4] was 37, 12 ug/mL, the “Aqueous Stability (pH = 2.0)” value (pH 2) was “Stable” and the “Aqueous Stability (pH = 3.5)” value (pH 3.5) was “Stable”. For the same molecule, the “Aqueous Stability (pH = 7.4) (in words)” value (pH 7.4) was “Stable”, the solubility (physchem [2]; [8]) was 56 µg/mL (≈ 105 µM) and the “F % (bioavailability, calculated on dose levels)” value [3] was 6.7%. For the same molecule, the Tmax [3] was 8.0 ± 0 h and the AUClast ([3]; 53.5 mg/kg) was 5203 + 1048 ng*h/mL.
For `CNCCCN(C)C(=O)Oc1c(-c2c(O)ccc3ccccc23)cc(NS(=O)(=O)c2ccc(OC)cc2)c2ccccc12` [Compound 4, 2-hydroxy-4′-((4-methoxyphenyl)sulfonamido)-[1,2′-binaphthalen]-1′-yl methyl(3-(methylamino)propyl)carbamate hydrochloride], the half-life at 2 µM (physchem [5]) was 1 h, the half-life at 2 µM (in vitro) was 4.3 min and the “Aqueous Stability (pH = 2.0)” value (phosphate buffer pH 2.0, 37° C., up to 1440 minutes) was “Stable”. The “Aqueous Stability (pH = 3.5)” value (phosphate buffer pH 3.5, 37° C., up to 1440 minutes) was “Stable” and the “Aqueous Stability (pH = 7.4) (in words)” value (phosphate buffer pH 7.4, 37° C., up to 1440 minutes) was “Unstable;”.
For `COc1ccc(S(=O)(=O)Nc2cc(-c3c(O)ccc4ccccc34)c(O)c3ccccc23)cc1` [TTI-101, N-(1′,2-dihydroxy-[1,2′-binaphthalen]-4′-yl)-4-methoxybenzenesulfonamide], the “Solubility (in words)” value [6] was “insoluble in aqueous solutions”, the AUC(0-t) [7] was 116000 ± 7170 ng·h/mL and the half-life [7] was 2.4 ± 0.1 h. For the same molecule, the AUC(0-t) (in vivo; male, SD, iv, 21.5 mg/kg) was 72400 ± 15100 ng·h/mL, the half-life (in vivo; male, SD, iv, 21.5 mg/kg) was 2.8 ± 0.6 h and the bioavailability (in vivo; po) was 40.4%.
